Earlier results, collected in patent US20080194655A1, “ZERO ORDER CONTROLLED RELEASE COMPOSITIONS OF TIZANIDINE” (priority 2007, published 2008).

System: cognitive function (attention)
Details: doses of 0.5-0.7 g/kg alcohol

CCO [alcohol]
peak impairment (decrement) in Power of Attention compared to baseline: about 150 msec
